How the values were obtained:
Tyrosinase (Danio rerio) [1] = molecular target: T1, Tyrosinase (Danio rerio) (UniProt A0A8M1PAD4); assay: Inhibition of zebrafish embryo tyrosinase assessed as melanin production at 50 ug/ml after 48 hrs relative to control; values are per cent of control
T1 sequence (whole entry): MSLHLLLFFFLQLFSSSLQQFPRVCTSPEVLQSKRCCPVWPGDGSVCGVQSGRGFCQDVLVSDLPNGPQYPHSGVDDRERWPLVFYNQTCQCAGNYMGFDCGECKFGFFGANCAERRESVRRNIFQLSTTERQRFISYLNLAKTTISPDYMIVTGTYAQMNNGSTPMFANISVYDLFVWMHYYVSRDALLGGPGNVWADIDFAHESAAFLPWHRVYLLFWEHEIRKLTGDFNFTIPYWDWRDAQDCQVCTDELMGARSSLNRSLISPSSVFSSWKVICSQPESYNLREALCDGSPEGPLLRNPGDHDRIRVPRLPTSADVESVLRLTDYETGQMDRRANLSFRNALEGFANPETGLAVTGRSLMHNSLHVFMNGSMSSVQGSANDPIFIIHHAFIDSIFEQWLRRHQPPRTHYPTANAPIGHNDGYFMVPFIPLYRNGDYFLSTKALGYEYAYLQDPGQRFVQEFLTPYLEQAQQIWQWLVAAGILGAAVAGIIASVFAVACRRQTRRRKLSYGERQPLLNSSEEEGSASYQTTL

Tyrosinase (Danio rerio) [2] = molecular target: T1, Tyrosinase (Danio rerio); assay: Inhibition of zebrafish embryo tyrosinase assessed as residual activity at 50 ug/ml after 48 hrs relative to control
[3] = Toxicity in wild type zebrafish embryos assessed as dead embryo at 2500 ug/ml treated for 96 hrs post fertilization starting from 6 hrs post fertilization by inverted microscopic analysis relative to control; format: organism-based, Danio rerio; conditions: in vivo, read-out: Activity
Danio rerio [4] = species: Danio rerio; assay: Toxicity in wild type zebrafish embryos assessed as normal embryo at 1000 ug/ml treated for 96 hrs post fertilization starting from 6 hrs post fertilization by inverted microscopic analysis relative to control; format: organism-based; conditions: in vivo
Danio rerio [5] = assay: Toxicity in wild type zebrafish embryos assessed as yolk edema at 1000 ug/ml treated for 96 hrs post fertilization starting from 6 hrs post fertilization by inverted microscopic analysis relative to control; format: organism-based; conditions: in vivo
[6] = Toxicity in wild type zebrafish embryos assessed as dead embryo at 500 ug/ml treated for 96 hrs post fertilization starting from 6 hrs post fertilization by inverted microscopic analysis relative to control; format: organism-based, Danio rerio; conditions: in vivo, read-out: Activity
Danio rerio [7] = species: Danio rerio; assay: Toxicity in wild type zebrafish embryos assessed as notochord at 500 ug/ml treated for 96 hrs post fertilization starting from 6 hrs post fertilization by inverted microscopic analysis relative to control; format: organism-based; conditions: in vivo
Danio rerio [8] = species: Danio rerio; assay: Toxicity in wild type zebrafish embryos assessed as skeletal deformities at 2000 ug/ml treated for 96 hrs post fertilization starting from 6 hrs post fertilization by inverted microscopic analysis relative to control; format: organism-based; conditions: in vivo
Danio rerio [9] = species: Danio rerio; assay: Toxicity in wild type zebrafish embryos assessed as growth retardation at 2000 ug/ml treated for 96 hrs post fertilization starting from 6 hrs post fertilization by inverted microscopic analysis relative to control; format: organism-based; conditions: in vivo
Danio rerio [10] = species: Danio rerio; assay: Toxicity in wild type zebrafish embryos assessed as eyes at 100 ug/ml treated for 96 hrs post fertilization starting from 6 hrs post fertilization by inverted microscopic analysis relative to control; format: organism-based; conditions: in vivo

SMILES	melanin content % of control (Tyrosinase (Danio rerio) [1])	Activity (Tyrosinase (Danio rerio) [2])	mortality at 2500 ug/ml [3]	Activity (Danio rerio [4])	Activity (Danio rerio [5])	mortality at 500 ug/ml [6]	Activity (Danio rerio [7])	Activity (Danio rerio [8])	Activity (Danio rerio [9])	Activity (Danio rerio [10])
O=c1cc(-c2ccccc2)c2ccc(O)cc2o1	24%	48%								
O=c1cc(CO)occ1O [KOJIC ACID]			0%	1.67%	0%	0%	0%	78.33%	3.33%	0%
